What was measured:
[1] = test system: lymphoma cell lines WSU-DLCL2, SU-DHL6, and RL; assay: NK mediated cell killing (ADCC) with rituximab; assay type: cell-based, human; settings: NK cells pre-treated with Compound 1 100 nM 18 hours; rituximab 7.5 ug/mL, 4 hours
Description: Commercial purified NK cells isolated from human peripheral blood mononuclear cell (PBMC) were seeded at a concentration of 10^6 cells/mL, cultured in media supplemented with 10 ng/mLrhIL-2 and treated with Compound 1 (100 nM) for 18 hours at 37° C. prior to cytotoxicity assays. Target lymphoma cell lines were added to the pre-treated effector NK cells at a 1:10 (target:effector) cell ratio for WSU-DLCL2 and RL lines or 1:3 for SU-DHL6. At the time of co-culture, rituximab or isotype control at 7.5 ug/mL were added to the media and cells were incubated for 4 hours at 37° C. Then, cells were collected, stained with CD20, Annexin V and 7AAD and analyzed by FACS.

[2] = test system: WSU-DLCL2 DLBCL xenograft tumors; assay: WSU-DLCL2 (DLBCL) xenograft model; assay type: in vivo, female SCID mice; settings: 5 days on 2 days off for 3 weeks, single agent
Description: (§1) Female 6- to 8-weeks-old CB17 SCID mice were obtained from Charles River Laboratories. Mice were housed in a barrier facility in micro-isolator cages at 10 animals per cage. Mice were fed with Harlan-Teklad LM-485 Mouse/Rat Sterilizable Diet and autoclaved water ad libitum and maintained on a 12 hours light-dark cycle. Animals were acclimatized to the animal housing facility for a period of 7 days before the beginning of the experiment. All animal studies were performed under protocols approved by Institutional Animal Care and Use Committees.
Suspensions of Compound 1 were pared in aqueous 0.5% Methyl Cellulose, 0.25% Tween 80 and 50 mM Citrate pH 3. The formulations were homogenized using a Teflon pestle and mortar (Potter-Elvehjem tissue grinder). For multiday studies, the compound was freshly formulated every day. Compound 1 and vehicle were administered by oral gavage. Rituximab was diluted in 0.9% saline and administered intraperitoneally.
Tumor cells were injected subcutaneously in the flank region above the right hind legs of female CB17 SCID mice. When the tumor volumes reach to approximately 200 mm^3, mice bearing tumors of 150-300 mm^3 were randomly assigned to receive oral doses of vehicle, Compound 1, rituximab or combination of Compound 1 (5 days on and 2 days off for 3 weeks) and rituximab (twice a week) for the duration of the study. Tumor volumes were determined before the initiation of treatment and were considered as the starting volumes. Tumors were measured twice a week for the duration of the study. The long and short axes of each tumor were measured using a digital caliper in millimeters. The tumor volumes were calculated using the formula: width^2×length/2. The tumor volumes were expressed in cubic millimeters (mm^3).
Xenograft data are expressed as mean±SEM. Statistical analyses were performed using GraphPad Prism. […]
Xenograft study was conducted with female SCID mice bearing WSU-DLCL2 DLBCL xenograft tumors. […] Tumors were measured twice a week using calipers and tumor volumes were calculated using the formula of W^2×L/2. […]

[3] = test system: RL follicular lymphoma xenograft tumors; assay: RL (follicular lymphoma) xenograft model, alone and in combination with rituximab; assay type: in vivo, female SCID mice; settings: Compound 1 0.3 mg/kg oral, 5 days on 2 days off for 3 weeks, single agent
Description: as §1
Suspensions of Compound 1 were pared in aqueous 0.5% Methyl Cellulose, 0.25% Tween 80 and 50 mM Citrate pH 3. […]
Tumor cells were injected subcutaneously in the flank region above the right hind legs of female CB17 SCID mice. […] Tumor volumes were determined before the initiation of treatment and were considered as the starting volumes. Tumors were measured twice a week for the duration of the study. The long and short axes of each tumor were measured using a digital caliper in millimeters. The tumor volumes were calculated using the formula: width^2×length/2. […]
Xenograft data are expressed as mean±SEM. […]
Xenograft study was conducted with female SCID mice bearing RL follicular lymphoma xenograft tumors. […] Tumors were measured twice a week using calipers and tumor volumes were calculated using the formula of W^2×L/2. […]

SMILES: O=C1CC[C@H](N2C(=O)c3cccc(NCc4ccc(CN5CC(N6CCOCC6)C5)cc4F)c3C2=O)C(=O)N1 [Compound 1, (S)-2-(2,6-dioxopiperidin-3-yl)-4-((2-fluoro-4-((3-morpholinoazetidin-1-yl)methyl)benzyl)amino)isoindoline-1,3-dione]
- rituximab cytotoxicity of lymphoma cell lines (NK mediated cell killing, ADCC) [1]: able to increase rituximab cytotoxicity of lymphoma cell lines
- tumor volume reduction ([2]; Compound 1 1 mg/kg oral): 74%
- tumor volume reduction ([2]; Compound 1 3 mg/kg oral): 86%
- tumor volume reduction [3]: 36%
